US10280138B2, “Nitric oxide donating derivatives of fluprostenol” (NICOX S.A., priority 2015, dated 2019)

System: transiently ocular hypertensive New Zealand white rabbits
Experiment: Intraocular pressure (IOP) lowering activity in hypertonic saline-induced IOP increase in rabbits
Type: in vivo
Settings: for Mean IOP changes vs vehicle and baseline, 60 min: 60 min after topical application, hypertonic saline 5% intravitreal; for Mean IOP changes vs vehicle and baseline, 60 min / IOP60 min reduction vs vehicle / Mean IOP changes vs vehicle and baseline, 90 min / Mean IOP changes vs vehicle and baseline, 180 min / Mean IOP changes vs vehicle and baseline, 300 min / Mean IOP changes vs vehicle and baseline, 120 min / Mean IOP changes vs vehicle and baseline, 240 min / Maximal IOP reduc.: dose (%); for IOP60 min reduction vs vehicle / Delta60 min vs parent drug: 60 minutes after topical administration; for Delta60 min vs parent drug: parent drug bimatoprost (A-1, B-1) or fluprostenol isopropyl ester (Comp. 9-13); for Mean IOP changes vs vehicle and baseline, 90 min: 90 min after topical application; for Mean IOP changes vs vehicle and baseline, 90 min / Mean IOP changes vs vehicle and baseline, 180 min / Mean IOP changes vs vehicle and baseline, 300 min: treatment group B (pneumatonometer); for Mean IOP changes vs vehicle and baseline, 180 min: 180 min after topical application; for Mean IOP changes vs vehicle and baseline, 300 min: 300 min after topical application; for Mean IOP changes vs vehicle and baseline, 120 min: 120 min after topical application; for Mean IOP changes vs vehicle and baseline, 120 min / Mean IOP changes vs vehicle and baseline, 240 min: treatment group A (Tono-Pen VET); for Mean IOP changes vs vehicle and baseline, 240 min: 240 min after topical application; for Maximal IOP reduc.: topical application
Description: Intraocular Pressure (IOP) Lowering Activity in Hypertonic Saline-Induced IOP Increase in Rabbits
Compounds (9), (10), (11), (12) and (13) of the invention and compounds (A-1) and (B-1) disclosed in WO 2009/136281 were directly compared with fluprostenol isopropyl ester and bimatoprost, in the same model of ocular hypertensive rabbit. The hypotensive effects of the two groups of compounds were independently evaluated at different time points and in different sets of hypertensive rabbits.
Test compounds and dose (equimolar to the correspondent parent drug)
Vehicle: buffered aqueous solution pH 6, polyoxyl 40 hydrogenated castor oil 5 mg/ml, tromethamine 10 mg/ml, boric acid 6 mg/ml, mannitol 40 mg/ml, edetate disodium 0.5 mg/ml and benzalkonium chloride 0.15 mg/mL
Male New Zealand white rabbits weighing 2.0-2.5 kg were used in the experiments. The transient increase in IOP was induced by the injection of 0.1 ml of hypertonic saline solution (5%) into the vitreous of both eyes.
Intraocular pressure (IOP) was determined using a Tono-Pen VET prior to hypertonic saline injection (basal) and at 30, 60, 120 and 240 min thereafter. Vehicle or tested compound dissolved in the vehicle was instilled immediately after the injection of hypertonic saline into the conjunctival pocket. Eyes were randomly assigned to different treatment groups.
One drop of 0.4% oxybuprocaine hydrochloride (Novesine, Sandoz) was instilled in each eye immediately before each set of pressure measurements.
Treatment Groups B (Prior Art Compounds)
Vehicle: tween 80 0.5%, 0.2 mg/ml benzalkonium chloride, 0.3% DMSO in PBS pH 6.7
Intraocular pressure (IOP) was determined using a pneumatonometer prior to hypertonic saline injection (basal) and at 30, 60, 90, 180 and 300 min thereafter. Vehicle or tested compound dissolved in the vehicle was instilled immediately after the injection of hypertonic saline into the conjunctival pocket. Eyes were randomly assigned to different treatment groups.
The intraocular pressure values measured following topical application of the tested compounds are reported in Table 1 expressed as mean IOP change in treated eyes versus vehicle-treated eyes at same time point and baseline; Table 1 also reports the maximal IOP reduction of the tested compounds expressed in percentage.

| Compound | Mean IOP changes vs vehicle and baseline, 60 min | IOP60 min reduction vs vehicle | Delta60 min vs parent drug | Mean IOP changes vs vehicle and baseline, 90 min | Mean IOP changes vs vehicle and baseline, 180 min | Mean IOP changes vs vehicle and baseline, 300 min | Mean IOP changes vs vehicle and baseline, 120 min | Mean IOP changes vs vehicle and baseline, 240 min | Maximal IOP reduc. |
| --- | --- | --- | --- | --- | --- | --- | --- | --- | --- |
| CCNC(=O)CCC/C=C\C[C@@H]1[C@@H](/C=C/[C@@H](O)CCc2ccccc2)[C@H](O)C[C@@H]1O [Bimatoprost, reference compound] | −1.8 ± 2.4 mmHg | 1% | 0 mmHg | −2.7 ± 2.0 mmHg | 0.8 ± 1.5 mmHg | 0.3 ± 2.6 mmHg |  |  |  |
| CC(C)OC(=O)CCC/C=C\C[C@@H]1[C@@H](/C=C/[C@H](COc2cccc(C(F)(F)F)c2)OC(=O)CCCCCO[N+](=O)[O-])[C@H](O)C[C@@H]1O [Comp. (9)] | −6.6 ± 0.9 mmHg | 20% | −6.5 mmHg |  |  |  | −8.2 ± 1.2 mmHg | −2.0 ± 0.7 mmHg | 23 ± 3% |
| CC(C)OC(=O)CCC/C=C\C[C@@H]1[C@@H](/C=C/[C@H](COc2cccc(C(F)(F)F)c2)OC(=O)CCCC(CO[N+](=O)[O-])O[N+](=O)[O-])[C@H](O)C[C@@H]1O (stereo partly drawn) [Comp. (10), (Z)-isopropyl 7-((1R,2R,3R,5S)-2-((3R,E)-3-(5,6-bis(nitrooxy)hexanoyloxy)-4-(3-(trifluoromethyl)phenoxy)but-1-enyl)-3,5-dihydroxycyclopentyl)hept-5-enoate] | −9.2 ± 1.0 mmHg | 28% | −9.1 mmHg |  |  |  | −8.8 ± 1.2 mmHg | −1.2 ± 0.8 mmHg | 26 ± 3% |
| CC(C)OC(=O)CCC/C=C\C[C@@H]1[C@@H](/C=C/[C@H](COc2cccc(C(F)(F)F)c2)OC(=O)COCCO[N+](=O)[O-])[C@H](O)C[C@@H]1O [Comp. (11), (Z)-isopropyl 7-((1R,2R,3R,5S)-3,5-dihydroxy-2-((R,E)-3-(2-(2-nitrooxyethoxy)acetoxy)-4-(3-(trifluoromethyl)phenoxy)but-1-enyl)cyclopentyl)hept-5-enoate] | −9.7 ± 0.8 mmHg | 32% | −9.6 mmHg |  |  |  | −7.4 ± 0.9 mmHg | −3.2 ± 0.6 mmHg | 37 ± 4% |
| CC(C)OC(=O)CCC/C=C\C[C@@H]1[C@@H](/C=C/[C@H](COc2cccc(C(F)(F)F)c2)OC(=O)CCOCC(CO[N+](=O)[O-])O[N+](=O)[O-])[C@H](O)C[C@@H]1O (stereo partly drawn) [Comp. (12), (Z)-isopropyl 7-((1R,2R,3R,5S)-2-((3R,E)-3-(3-(2,3-bis(nitrooxy)propoxy)propanoyloxy)-4-(3-(trifluoromethyl)phenoxy)but-1-enyl)-3,5 dihydroxycyclopentyl)hept-5-enoate] | −7.1 ± 0.8 mmHg | 22% | −7.0 mmHg |  |  |  | −9.6 ± 1.0 mmHg | −2.9 ± 0.5 mmHg | 38 ± 3% |
| O=C(O)CCC/C=C\C[C@@H]1[C@@H](/C=C/[C@H](COc2cccc(C(F)(F)F)c2)OC(=O)CCCC(CO[N+](=O)[O-])O[N+](=O)[O-])[C@H](O)C[C@@H]1O (stereo partly drawn) [Comp. (13), (Z)-7-((1R,2R,3R,5S)-2-((R,E)-3-(5,6-bis(nitrooxy)hexanoyloxy)-4-(3-(trifluoromethyl)phenoxy)but-1-enyl)-3,5-dihydroxycyclopentyl)hept-5-enoic acid] | −8.6 ± 1.2 mmHg | 31% | −8.5 mmHg |  |  |  | −6.9 ± 0.9 mmHg | −0.3 ± 1.0 mmHg | 39 ± 3% |
| CCNC(=O)CCC/C=C\C[C@@H]1[C@@H](/C=C/[C@H](CCc2ccccc2)OC(=O)CCCO[N+](=O)[O-])[C@H](O)C[C@@H]1O [Compound A-1, (1S,2E)-3-{(1R,2R,3 S,5R)-2-[(2Z)-7-(Ethylamino)-7-oxohept-2-en-1-yl]-3,5-dihydroxycyclopentyl}-1-(2-phenylethyl)prop-2-en-1-yl 4-(nitrooxy) butanoate, reference compound] | −0.06 ± 5.2 mmHg | 4% | Not effective | 0.03 ± 5.0 mmHg | 1.1 ± 2.8 mmHg | −1.9 ± 3.2 mmHg |  |  | 3 ± 9% |
| CCNC(=O)CCC/C=C\C[C@@H]1[C@@H](/C=C/[C@H](CCc2ccccc2)OC(=O)CCCCCO[N+](=O)[O-])[C@H](O)C[C@@H]1O [Compound B-1, (1S,2E)-3-{(1R,2R,3S,5R)-2-[(2Z)-7-(Ethylamino)-7-oxohept-2-en-1-yl]-3,5-dihydroxycyclopentyl}-1-(2-phenylethyl)prop-2-en-1-yl 6-(nitrooxy) hexanoate, reference compound] | −3.9 ± 2.5 mmHg | 7% | −2.1 mmHg | −5.6 ± 2.8 mmHg | 5.3 ± 1.5 mmHg | −3.9 ± 1.9 mmHg |  |  | 10 ± 3% |
| CC(C)OC(=O)CCC/C=C\C[C@@H]1[C@@H](/C=C/[C@@H](O)COc2cccc(C(F)(F)F)c2)[C@H](O)C[C@@H]1O [Fluprostenol isopropyl ester, reference compound] | −0.08 ± 1.2 mmHg | 3% | 0 mmHg |  |  |  | −2.0 ± 1.3 mmHg | −0.4 ± 0.9 mmHg |  |
